Consider 10 compounds from ChEMBL document CHEMBL1130641, “5,5-trans lactone-containing inhibitors of serine proteases: identification of a novel, acylating thrombin inhibitor” (Bioorg Med Chem Lett, 1998).

Structures are written as SMILES.

For experiment [1], the target named is Prothrombin (Homo sapiens, UniProt P00734). Briefly: Inhibition of thrombin.
For experiment [2], the target named is Serine protease 1 (Homo sapiens, UniProt P07477). Briefly: Inhibition of trypsin.
The target in experiment [3] is Coagulation factor X (Homo sapiens, UniProt P00742). In words: Compound was evaluated for the inhibition of Coagulation factor X.
Coagulation factor X, sequence (P00742 41-179 limits assumed): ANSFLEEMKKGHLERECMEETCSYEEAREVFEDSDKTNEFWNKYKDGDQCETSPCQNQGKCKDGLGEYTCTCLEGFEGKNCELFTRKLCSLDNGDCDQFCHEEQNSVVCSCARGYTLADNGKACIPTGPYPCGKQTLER
Coagulation factor X, sequence (P00742 235-488 limits assumed): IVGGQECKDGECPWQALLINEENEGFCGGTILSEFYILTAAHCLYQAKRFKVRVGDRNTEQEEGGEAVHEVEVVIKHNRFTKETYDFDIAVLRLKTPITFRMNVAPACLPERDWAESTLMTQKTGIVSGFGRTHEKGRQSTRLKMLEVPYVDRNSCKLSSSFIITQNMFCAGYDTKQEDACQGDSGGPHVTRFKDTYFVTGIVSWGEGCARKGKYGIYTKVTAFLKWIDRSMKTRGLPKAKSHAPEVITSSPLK
Experiment [4] concerns the target T1, Neutrophil elastase (Homo sapiens, UniProt P08246).
T1 sequence (P08246 whole entry): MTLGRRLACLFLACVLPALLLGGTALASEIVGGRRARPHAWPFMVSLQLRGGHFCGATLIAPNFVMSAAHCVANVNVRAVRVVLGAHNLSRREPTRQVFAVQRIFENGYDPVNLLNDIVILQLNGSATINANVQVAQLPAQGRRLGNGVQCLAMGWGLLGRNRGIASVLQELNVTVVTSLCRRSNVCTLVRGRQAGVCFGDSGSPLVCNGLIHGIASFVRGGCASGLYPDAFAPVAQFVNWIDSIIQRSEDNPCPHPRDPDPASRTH
Briefly: Compound was evaluated for the inhibition of human leukocyte elastase(HLE).

Serine protease 1, sequence (P07477 whole entry): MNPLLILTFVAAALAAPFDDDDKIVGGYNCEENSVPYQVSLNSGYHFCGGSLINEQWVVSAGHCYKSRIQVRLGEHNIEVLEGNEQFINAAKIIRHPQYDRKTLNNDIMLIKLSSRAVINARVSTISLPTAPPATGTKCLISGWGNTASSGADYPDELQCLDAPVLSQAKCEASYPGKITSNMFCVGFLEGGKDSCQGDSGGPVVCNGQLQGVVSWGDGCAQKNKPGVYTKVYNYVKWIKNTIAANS

Compound `C=CC[C@H]1C(=O)O[C@H]2CCC[C@@H]21` gave a half-inhibitory concentration (IC50) in experiment [1] of more than 50 µM.

Consider `O=C1O[C@H]2CCC[C@@H]2[C@@H]1Cc1ccccc1`, for which inhibition in experiment [1] was half-maximal at 73 µM (IC50).

As for `CC(C)=CC(=O)C[C@@H]1C(=O)O[C@H]2CCC[C@@H]21`, the IC50 in experiment [1] came to 0.021 µM.

In experiment [1], `O=C1O[C@H]2CCC[C@@H]2[C@H]1Cc1ccccc1` displayed an IC50 of 92 µM.

For `C=CC[C@@H]1C(=O)O[C@H]2CCC[C@@H]21`, the IC50 in experiment [1] is 98 µM.

For the compound `N=C(N)c1cccc(C[C@H]2C(=O)O[C@H]3CCC[C@@H]32)c1`, the IC50 in experiment [2] is 3.3 µM; in experiment [1], more than 100 µM.

As to `CC(C)=CC(=O)C[C@@H]1C(=O)O[C@H]2CCCC21` (some centres not stated), in experiment [1], 0.019 µM corresponded to half-maximal inhibition (IC50).

Turning to `N=C(N)CCCC[C@H]1C(=O)O[C@H]2CCC[C@@H]21`, the IC50 in experiment [2] came out at 0.04 µM; in experiment [3], 10.3 µM; in experiment [1], 0.13 µM.

`N=C(N)c1ccc(C[C@H]2C(=O)O[C@H]3CCC[C@@H]32)cc1`: the half-inhibitory concentration (IC50) was found to be 0.22 µM in experiment [2] and 16.8 µM in experiment [1].

With `CC(C)=CC(=O)C[C@H]1C(=O)O[C@H]2C[C@]3(C)C4=CC[C@@H]5[C@](C)(CC[C@H]6OC(=O)[C@@]56C)[C@H]4CC[C@@]3(C)[C@@H]21`, the half-inhibitory concentration (IC50) was 0.07 µM in experiment [2], more than 20 µM in experiment [3], 0.046 µM in experiment [1] and more than 10 µM in experiment [4].

One may read the IC50 as the concentration that gives 50% inhibition. Higher therefore signals a need for much substance.
